Reference: publication PMC11129182, “Development of Inhibitors, Probes, and PROTAC Provides a Complete Toolbox to Study PARK7 in the Living Cell” (Journal of Medicinal Chemistry, 2024)
Like-named read-outs stand apart in the source and are kept apart here.

Target: T1, PARK7 (Homo sapiens, UniProt Q99497)
T1 sequence (Q99497 1-189): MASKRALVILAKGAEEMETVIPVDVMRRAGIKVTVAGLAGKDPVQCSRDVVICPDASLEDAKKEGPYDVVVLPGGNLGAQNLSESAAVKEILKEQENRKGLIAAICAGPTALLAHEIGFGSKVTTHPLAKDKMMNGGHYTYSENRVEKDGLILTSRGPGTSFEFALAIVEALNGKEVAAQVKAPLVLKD
Assay: High-throughput screen of the crude compound library, PARK7 fluorescence polarization (FP) assay with FP reagent JYQ-107
Format: biochemical
Conditions: read-out: HTS FP assay %Inhibition (1.25 µM)
Description: Therefore, taking JYQ-88 as a starting point, we conducted an optimization to further improve the molecule in terms of inhibitory potency, specificity, and cellular uptake. […] First, a small tailored library was designed and synthesized to investigate whether the introduction of larger, hydrophilic substituents on JYQ-88 would enhance the interaction with the PARK7 pocket. […] The second approach involved the generation of a compound library containing diverse substituents at the azidomethyl position. […] We next performed a high-throughput screen of this crude compound library using our in-house developed PARK7 fluorescence polarization (FP) assay.[15]

[1] = 1.25 µM, crude compound library

SMILES | inhibition at 1.25 µM [%] | inhibition at 1.25 µM [1] [%]
N#CN1CC[C@@H](C(=O)Nc2nc3c(s2)CNCC3)C1 [amine] | 39.9 | –
N#CN1CC[C@@H](C(=O)Nc2nc3c(s2)CN(C(=O)c2nc(N4CCCC4)ncc2Cl)CC3)C1 [compound 6] | – | 71.7
N#CN1CC[C@@H](C(=O)Nc2nc3c(s2)CN(C(=O)C(Cc2c[nH]cn2)NS(=O)(=O)c2ccc(Cl)cc2)CC3)C1 (some centres unmarked) [compound 7] | – | 67.3
N#CN1CC[C@@H](C(=O)Nc2nc3c(s2)CN(C(=O)Cc2csc(-c4cnccn4)n2)CC3)C1 [compound 8] | – | 71.4
N#CN1CC[C@@H](C(=O)Nc2nc3c(s2)CN(C(=O)CCN(Cc2ccccc2)S(=O)(=O)c2c(Cl)cccc2Cl)CC3)C1 [compound 9] | – | 69.7
N#CN1CC[C@@H](C(=O)Nc2nc3c(s2)CN(C(=O)c2ncoc2-c2cccs2)CC3)C1 [compound 10] | – | 77.3
Cc1ccc(-n2c(C)ccc2C)c(C(=O)N2CCc3nc(NC(=O)[C@@H]4CCN(C#N)C4)sc3C2)c1 [compound 12] | – | 66.6
N#CN1CC[C@@H](C(=O)Nc2nc3c(s2)CN(C(=O)Cc2csc(COc4ccc(Cl)cc4)n2)CC3)C1 [compound 13] | – | 75.4
N#CN1CC[C@@H](C(=O)Nc2nc3c(s2)CN(C(=O)Cc2cc(-c4ccccc4)on2)CC3)C1 [compound 14] | – | 73
N#CN1CC[C@@H](C(=O)Nc2nc3c(s2)CN(C(=O)Cc2ccc(S(=O)(=O)N4CCCC4)s2)CC3)C1 [compound 15] | – | 69.5
CN(C(=O)c1cccs1)c1ccccc1C(=O)N1CCc2nc(NC(=O)[C@@H]3CCN(C#N)C3)sc2C1 [compound 16] | – | 63
CN1CCN(c2ccccc2C(=O)N2CCc3nc(NC(=O)[C@@H]4CCN(C#N)C4)sc3C2)CC1 [compound 17] | – | 51.2
Cn1cc(-c2ocnc2C(=O)N2CCc3nc(NC(=O)[C@@H]4CCN(C#N)C4)sc3C2)cn1 [compound 18] | – | 60.9
N#CN1CC[C@@H](C(=O)Nc2nc3c(s2)CN(C(=O)c2cc(S(N)(=O)=O)ccc2-c2cccc(C(F)(F)F)c2)CC3)C1 [compound 19] | – | 69
N#CN1CC[C@@H](C(=O)Nc2nc3c(s2)CN(C(=O)c2cnoc2-c2cccs2)CC3)C1 [compound 20] | – | 73
N#CN1CC[C@@H](C(=O)Nc2nc3c(s2)CN(C(=O)c2ccc(OCc4ccncc4)cc2)CC3)C1 [compound 21] | – | 59.5
N#CN1CC[C@@H](C(=O)Nc2nc3c(s2)CN(C(=O)C2CCN(Cc4ccc(Cl)s4)CC2)CC3)C1 [compound 23] | – | 68.4
N#CN1CC[C@@H](C(=O)Nc2nc3c(s2)CN(C(=O)C2CC(=O)N(c4cnccn4)C2)CC3)C1 (some centres unmarked) [compound 24] | – | 71.4
CCC(C(=O)N1CCc2nc(NC(=O)[C@@H]3CCN(C#N)C3)sc2C1)n1nnc(-c2ccsc2)n1 (some centres unmarked) [compound 25] | – | 65.2
Cc1cnn(-c2c(C(=O)N3CCc4nc(NC(=O)[C@@H]5CCN(C#N)C5)sc4C3)c(C)nn2C)c1 [compound 26] | – | 61.4
N#CN1CC[C@@H](C(=O)Nc2nc3c(s2)CN(C(=O)c2csc(-c4ncccn4)n2)CC3)C1 [compound 27] | – | 80.8

SMILES | inhibition at 1.25 µM [%] | inhibition at 1.25 µM [1] [%]
N#CN1CC[C@@H](C(=O)Nc2nc3c(s2)CN(C(=O)c2ncoc2C2CC2)CC3)C1 [compound 28] | – | 85.7
N#CN1CC[C@@H](C(=O)Nc2nc3c(s2)CN(C(=O)CC(O)(c2nccn2Cc2ccccc2)C(F)(F)F)CC3)C1 (some centres unmarked) [compound 29] | – | 78.4
Cc1ccc(NS(=O)(=O)c2cccc(C(=O)N3CCc4nc(NC(=O)[C@@H]5CCN(C#N)C5)sc4C3)c2)cc1 [compound 31] | – | 83.8
N#CN1CC[C@@H](C(=O)Nc2nc3c(s2)CN(C(=O)[C@@H]2C[C@H]2c2ccco2)CC3)C1 [compound 32] | – | 87
Cn1ncc(C(=O)N2CCc3nc(NC(=O)[C@@H]4CCN(C#N)C4)sc3C2)c1-n1cccc1 [compound 33] | – | 87
N#CN1CC[C@@H](C(=O)Nc2nc3c(s2)CN(C(=O)C2(n4cnnn4)CC2)CC3)C1 [compound 34] | – | 65.7
N#CN1CC[C@@H](C(=O)Nc2nc3c(s2)CN(C(=O)C2CC(OCc4ccccc4)C2)CC3)C1 (some centres unmarked) [compound 35] | – | 78.9
N#CN1CC[C@@H](C(=O)Nc2nc3c(s2)CN(C(=O)C2(n4cnnn4)CCOCC2)CC3)C1 [compound 36] | – | 65.2
N#CN1CC[C@@H](C(=O)Nc2nc3c(s2)CN(C(=O)c2noc(Cc4ccccc4F)n2)CC3)C1 [compound 37] | – | 73.8
CCn1cc(S(=O)(=O)N2CCC(C(=O)N3CCc4nc(NC(=O)[C@@H]5CCN(C#N)C5)sc4C3)CC2)cn1 [compound 38] | – | 69
N#CN1CC[C@@H](C(=O)Nc2nc3c(s2)CN(C(=O)[C@@H]2CCO[C@H]2c2ccccc2)CC3)C1 [compound 39] | – | 63.3
N#CN1CC[C@@H](C(=O)Nc2nc3c(s2)CN(C(=O)c2cnnn2-c2ccccc2Cl)CC3)C1 [compound 40] | – | 68.9
N#CN1CC[C@@H](C(=O)Nc2nc3c(s2)CN(C(=O)c2cnn(-c4ccncc4)c2)CC3)C1 [compound 41] | – | 66.3
N#CN1CC[C@@H](C(=O)Nc2nc3c(s2)CN(C(=O)c2snnc2-c2ccc(Br)cc2)CC3)C1 [compound 42] | – | 69.7
Cc1nc(CN2CCCC2C(=O)N2CCc3nc(NC(=O)[C@@H]4CCN(C#N)C4)sc3C2)no1 (some centres unmarked) [compound 43] | – | 71.1
Cc1oc(-c2ccco2)nc1CC(=O)N1CCc2nc(NC(=O)[C@@H]3CCN(C#N)C3)sc2C1 [compound 44] | – | 71.6
N#CN1CC[C@@H](C(=O)Nc2nc3c(s2)CN(C(=O)c2ccccc2OCc2ccncc2)CC3)C1 [compound 45] | – | 68.7
COc1ccc(N2CCN(C(C)C(=O)N3CCc4nc(NC(=O)[C@@H]5CCN(C#N)C5)sc4C3)CC2)cc1 (some centres unmarked) [compound 46] | – | 71.3
Cc1cc(C)c(C(=O)N2CCc3nc(NC(=O)[C@@H]4CCN(C#N)C4)sc3C2)c(OCC2CCCCC2)n1 [compound 47] | – | 75.4
N#CN1CC[C@@H](C(=O)Nc2nc3c(s2)CN(C(=O)c2ccc(S(=O)(=O)NC4CC4)cc2)CC3)C1 [compound 48] | – | 79.8
N#CN1CC[C@@H](C(=O)Nc2nc3c(s2)CN(C(=O)c2cc(-c4ccc(Cl)cc4)oc2C(F)(F)F)CC3)C1 [compound 49] | – | 70.8

SMILES | inhibition at 1.25 µM [%] | inhibition at 1.25 µM [1] [%]
N#CN1CC[C@@H](C(=O)Nc2nc3c(s2)CN(C(=O)c2cccc(S(=O)(=O)Nc4ccc(Cl)cc4)c2)CC3)C1 [compound 50] | – | 86.7
N#CN1CC[C@@H](C(=O)Nc2nc3c(s2)CN(C(=O)c2ccn(-c4ncc(C(F)(F)F)cc4Cl)n2)CC3)C1 [compound 51] | – | 85.7
N#CN1CC[C@@H](C(=O)Nc2nc3c(s2)CN(C(=O)Cc2coc(-c4ccccc4)n2)CC3)C1 [compound 52] | – | 78.3
Cn1cc(NS(=O)(=O)c2ccsc2C(=O)N2CCc3nc(NC(=O)[C@@H]4CCN(C#N)C4)sc3C2)cn1 [compound 53] | – | 64.9
N#CN1CC[C@@H](C(=O)Nc2nc3c(s2)CN(C(=O)CC(NS(=O)(=O)c2ccccc2)c2ccc(Cl)cc2)CC3)C1 (some centres unmarked) [compound 54] | – | 80.8
N#CN1CC[C@@H](C(=O)Nc2nc3c(s2)CN(C(=O)c2c[nH]nc2-c2cccnc2)CC3)C1 [compound 56] | – | 67.6
N#CN1CC[C@@H](C(=O)Nc2nc3c(s2)CN(C(=O)Cc2ccc(NS(=O)(=O)c4c(Cl)cccc4Cl)cc2)CC3)C1 [compound 57] | – | 84.9
N#CN1CC[C@@H](C(=O)Nc2nc3c(s2)CN(C(=O)c2csc(-c4cnccn4)n2)CC3)C1 [compound 58] | – | 74.4
N#CN1CC[C@@H](C(=O)Nc2nc3c(s2)CN(C(=O)c2ccc(Oc4cccc(Cl)c4Cl)nn2)CC3)C1 [compound 60] | – | 69.8
CC1CC1C(=O)N1CCCCC1C(=O)N1CCc2nc(NC(=O)[C@@H]3CCN(C#N)C3)sc2C1 (some centres unmarked) [compound 61] | – | 70.5
N#CN1CC[C@@H](C(=O)Nc2nc3c(s2)CN(C(=O)c2ncoc2-c2ccco2)CC3)C1 [compound 62] | – | 78.9
COc1cc(C(=O)N2CCc3nc(NC(=O)[C@@H]4CCN(C#N)C4)sc3C2)ccc1OCc1c(C)noc1C [compound 63] | – | 72.7
N#CN1CC[C@@H](C(=O)Nc2nc3c(s2)CN(C(=O)Cc2ccc(S(=O)(=O)N4CCOCC4)s2)CC3)C1 [compound 65] | – | 87
N#CN1CC[C@@H](C(=O)Nc2nc3c(s2)CN(C(=O)c2cc(OCc4ccccc4)ccn2)CC3)C1 [compound 66] | – | 70.6
CN(Cc1ccco1)c1ccccc1C(=O)N1CCc2nc(NC(=O)[C@@H]3CCN(C#N)C3)sc2C1 [compound 67] | – | 72.7
Cc1cccc(C(=O)N2CCCCC2C(=O)N2CCc3nc(NC(=O)[C@@H]4CCN(C#N)C4)sc3C2)n1 (some centres unmarked) [compound 68] | – | 66.5
Cc1nc(-c2c(C)c(C)nn(C)c2=O)sc1C(=O)N1CCc2nc(NC(=O)[C@@H]3CCN(C#N)C3)sc2C1 [compound 69] | – | 70.5
N#CN1CC[C@@H](C(=O)Nc2nc3c(s2)CN(C(=O)c2cnc(COc4ccccc4)s2)CC3)C1 [compound 70] | – | 85.9
CC1=NN(c2ccc(C(=O)N3CCc4nc(NC(=O)[C@@H]5CCN(C#N)C5)sc4C3)cc2)CC1 [compound 71] | – | 69.5
Cc1oc(Cn2cc(Br)cn2)cc1C(=O)N1CCc2nc(NC(=O)[C@@H]3CCN(C#N)C3)sc2C1 [compound 72] | – | 87
